Experiments:
[1] = excess molar enthalpy (molar enthalpy of mixing); xn = mol fraction of the nth substance listed; settings: 318.15 K, 101.3 kPa, Liquid
[2] = xn = mol fraction of the nth substance listed; settings: 318.15 K, 101.3 kPa, Liquid

CCCCCOC(C)=O [pentyl ethanoate] + CCCCCCCCC
Settings	excess molar enthalpy [kcal/mol]	excess molar volume [m3/mol]
[1], x1 = 0.0676	0.0718	–
[1], x1 = 0.1364	0.126	–
[1], x1 = 0.2097	0.173	–
[1], x1 = 0.2818	0.207	–
[1], x1 = 0.3491	0.228	–
[1], x1 = 0.4124	0.239	–
[1], x1 = 0.4692	0.243	–
[1], x1 = 0.5191	0.239	–
[1], x1 = 0.5639	0.232	–
[1], x1 = 0.621	0.216	–
[1], x1 = 0.6739	0.202	–
[1], x1 = 0.7288	0.181	–
[1], x1 = 0.7858	0.154	–
[1], x1 = 0.8432	0.12	–
[1], x1 = 0.8986	0.0826	–
[1], x1 = 0.9529	0.0421	–
[2], x1 = 0.0672	–	1.52e-07
[2], x1 = 0.1243	–	2.83e-07
[2], x1 = 0.1813	–	4.14e-07
[2], x1 = 0.2354	–	5.13e-07
[2], x1 = 0.3037	–	5.97e-07
[2], x1 = 0.3405	–	6.3e-07
[2], x1 = 0.3995	–	6.66e-07
[2], x1 = 0.4479	–	6.75e-07
[2], x1 = 0.5035	–	6.77e-07
[2], x1 = 0.5492	–	6.64e-07
[2], x1 = 0.6071	–	6.24e-07
[2], x1 = 0.6461	–	5.91e-07
[2], x1 = 0.685	–	5.48e-07
[2], x1 = 0.7852	–	4.49e-07
[2], x1 = 0.8739	–	3.42e-07
[2], x1 = 0.9451	–	2.1e-07

CCCCCOC(C)=O [pentyl ethanoate] + CCCCCCCCCCC
Settings	excess molar enthalpy [kcal/mol]	excess molar volume [m3/mol]
[1], x1 = 0.083	0.0857	–
[1], x1 = 0.1513	0.138	–
[1], x1 = 0.225	0.185	–
[1], x1 = 0.2965	0.221	–
[1], x1 = 0.3642	0.246	–
[1], x1 = 0.4271	0.259	–
[1], x1 = 0.4836	0.264	–
[1], x1 = 0.5356	0.262	–
[1], x1 = 0.5749	0.254	–
[1], x1 = 0.6055	0.246	–
[1], x1 = 0.6529	0.23	–
[1], x1 = 0.7058	0.209	–
[1], x1 = 0.7614	0.182	–
[1], x1 = 0.8186	0.15	–
[1], x1 = 0.8782	0.108	–
[1], x1 = 0.9384	0.0617	–
[2], x1 = 0.0737	–	2.57e-07
[2], x1 = 0.1355	–	4.05e-07
[2], x1 = 0.2015	–	5.38e-07
[2], x1 = 0.2641	–	6.43e-07
[2], x1 = 0.3197	–	7.07e-07
[2], x1 = 0.3776	–	7.48e-07
[2], x1 = 0.4395	–	7.8e-07
[2], x1 = 0.4861	–	7.92e-07
[2], x1 = 0.5386	–	7.87e-07
[2], x1 = 0.5852	–	7.75e-07
[2], x1 = 0.6345	–	7.38e-07
[2], x1 = 0.6828	–	6.92e-07
[2], x1 = 0.713	–	6.43e-07
[2], x1 = 0.8089	–	4.89e-07
[2], x1 = 0.8864	–	3.26e-07
[2], x1 = 0.9483	–	1.64e-07

CCCCCOC(C)=O [pentyl ethanoate] + CCCCCCCCCCCCC
Settings	excess molar enthalpy [kcal/mol]	excess molar volume [m3/mol]
[1], x1 = 0.0653	0.0763	–
[1], x1 = 0.1352	0.138	–
[1], x1 = 0.2036	0.191	–
[1], x1 = 0.2679	0.231	–
[1], x1 = 0.326	0.259	–
[1], x1 = 0.3795	0.278	–
[1], x1 = 0.4178	0.287	–
[1], x1 = 0.4635	0.294	–
[1], x1 = 0.5035	0.293	–
[1], x1 = 0.5376	0.29	–
[1], x1 = 0.5674	0.285	–
[1], x1 = 0.5679	0.28	–
[1], x1 = 0.6418	0.26	–
[1], x1 = 0.6886	0.242	–
[1], x1 = 0.7385	0.217	–
[1], x1 = 0.7897	0.189	–
[1], x1 = 0.8433	0.153	–
[1], x1 = 0.8966	0.108	–
[1], x1 = 0.9506	0.0582	–
[2], x1 = 0.0955	–	3.07e-07
[2], x1 = 0.1575	–	4.63e-07
[2], x1 = 0.2323	–	6.22e-07
[2], x1 = 0.2961	–	7.29e-07
[2], x1 = 0.3517	–	7.96e-07
[2], x1 = 0.4152	–	8.59e-07
[2], x1 = 0.4689	–	8.87e-07
[2], x1 = 0.5228	–	8.91e-07
[2], x1 = 0.5724	–	8.76e-07
[2], x1 = 0.6226	–	8.35e-07
[2], x1 = 0.667	–	7.77e-07
[2], x1 = 0.7036	–	7.29e-07
[2], x1 = 0.7416	–	6.77e-07
[2], x1 = 0.8311	–	5.02e-07
[2], x1 = 0.8985	–	3.43e-07
[2], x1 = 0.9564	–	1.66e-07

CCCOC(C)=O [propyl ethanoate] + CCCCCCC
Settings	excess molar enthalpy [kcal/mol]	excess molar volume [m3/mol]
[1], x1 = 0.0692	0.0826	–
[1], x1 = 0.1449	0.151	–
[1], x1 = 0.2229	0.211	–
[1], x1 = 0.2968	0.251	–
[1], x1 = 0.3635	0.278	–
[1], x1 = 0.4256	0.292	–
[1], x1 = 0.484	0.295	–
[1], x1 = 0.535	0.291	–
[1], x1 = 0.5539	0.284	–
[1], x1 = 0.6002	0.27	–
[1], x1 = 0.6528	0.251	–
[1], x1 = 0.6987	0.228	–
[1], x1 = 0.7526	0.198	–
[1], x1 = 0.8089	0.158	–
[1], x1 = 0.8635	0.118	–
[1], x1 = 0.9048	0.0847	–
[1], x1 = 0.9537	0.0443	–
[2], x1 = 0.0727	–	3.32e-07
[2], x1 = 0.1288	–	4.98e-07
[2], x1 = 0.1829	–	6.45e-07
[2], x1 = 0.2463	–	7.68e-07
[2], x1 = 0.2995	–	8.38e-07
[2], x1 = 0.3536	–	8.87e-07
[2], x1 = 0.404	–	9.09e-07
[2], x1 = 0.463	–	9.23e-07
[2], x1 = 0.5069	–	9.1e-07
[2], x1 = 0.5618	–	8.85e-07
[2], x1 = 0.6574	–	7.96e-07
[2], x1 = 0.6914	–	7.52e-07
[2], x1 = 0.7928	–	5.61e-07
[2], x1 = 0.8765	–	3.62e-07
[2], x1 = 0.9436	–	1.75e-07

Source: the NIST ThermoML archive (doi:10.1016/j.jct.2003.11.008)
